Measured values as given in PMC3723537, “Structural Basis for Native Agonist and Synthetic Inhibitor Recognition by the Pseudomonas aeruginosa Quorum Sensing Regulator PqsR (MvfR)” (PLoS Pathogens, 2013).
Like-named read-outs stand apart in the source and are kept apart here.

Tests used:
AQ biosynthesis = system: AQ biosynthesis; parameters: method as in PMID 17941706; settings: cited from earlier work
PqsR [1] = target: T1, PqsR (Pseudomonas aeruginosa, UniProt Q9I4X0); settings: cited from earlier work
T1 sequence (Q9I4X0 1-332): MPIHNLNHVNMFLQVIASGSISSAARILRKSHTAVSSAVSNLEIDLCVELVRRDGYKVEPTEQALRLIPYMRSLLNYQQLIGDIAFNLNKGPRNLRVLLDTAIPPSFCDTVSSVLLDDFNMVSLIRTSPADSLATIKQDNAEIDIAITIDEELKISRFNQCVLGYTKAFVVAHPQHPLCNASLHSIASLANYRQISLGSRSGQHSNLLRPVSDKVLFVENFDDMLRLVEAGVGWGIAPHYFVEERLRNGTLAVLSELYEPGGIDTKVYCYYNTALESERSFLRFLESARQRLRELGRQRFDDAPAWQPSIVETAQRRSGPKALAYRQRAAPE

PqsR [2] = target: T1, PqsR; assay: cell-based; parameters: assayed for their agonist and antagonist activities in a whole P. aeruginosa bacterial cell assay; endogenous in cells; host or cells: P. aeruginosa PAO1 wild type, ΔpqsA or ΔpqsAH strains carrying a chromosomal (mini)CTX::pqsA'-lux fusion; settings: Figure 2 (AQs); P. aeruginosa ΔpqsA CTX::pqsA'-lux strain; read-out: Agonist EC50 ±SD
PqsR [3] = target: T1, PqsR; parameters: assayed for their agonist and antagonist activities in a whole P. aeruginosa bacterial cell assay; endogenous in cells; host or cells: P. aeruginosa PAO1 wild type, ΔpqsA or ΔpqsAH strains carrying a chromosomal (mini)CTX::pqsA'-lux fusion; method as in Xiao et al. [21]; settings: different P. aeruginosa strain and reporter assay; ref Xiao et al. [21]; cited from earlier work
PqsR [4] = target: T1, PqsR; parameters: assayed for their agonist and antagonist activities in a whole P. aeruginosa bacterial cell assay; endogenous in cells; host or cells: P. aeruginosa PAO1 wild type, ΔpqsA or ΔpqsAH strains carrying a chromosomal (mini)CTX::pqsA'-lux fusion; method as in PMID 17922753; settings: cited from earlier work; for EC50 for PqsR-dependent activation of pqsA: whole P. aeruginosa cell assays; for Activation of PqsR (in words): dependence on alkyl chain length
PqsR [5] = target: T1, PqsR; assay: cell-based; parameters: assayed for their agonist and antagonist activities in a whole P. aeruginosa bacterial cell assay; endogenous in cells; host or cells: P. aeruginosa PAO1 wild type, ΔpqsA or ΔpqsAH strains carrying a chromosomal (mini)CTX::pqsA'-lux fusion; settings: for EC50: Figure 2 (AQs), P. aeruginosa ΔpqsAH CTX::pqsA'-lux strain, read-out: Agonist EC50 ±SD
PqsR Leu207Glu = PqsR Leu207Glu (Pseudomonas aeruginosa, UniProt Q9I4X0, L207E); assay: Response of PqsR-6His ligand binding site variants to PQS and HHQ, pqsA'-lux in ΔpqsA ΔpqsH ΔpqsR strain; format: cell-based; settings: Leu207Glu mutation; co-inducer 40 µM
P. aeruginosa PAO1 [6] = assay: Pyocyanin production, quantified spectrophotometrically; format: cell-based, Pseudomonas aeruginosa; settings: PAO1 cultures, 50 or 100 µM
Method: (§1) The impact of 3-NH2-7Cl-C9-QZN on (a) AQ production was assayed by LC MS/MS after extracting bacterial cultures with acidified ethyl acetate; (b) pyocyanin was quantified spectrophotometrically and (c) biofilm development was examined using a Bioflux 200 microfluidics device (Fluxion Biosciences; in conjunction with GFP-labelled P. aeruginosa strains, [53]). All assays were performed in triplicate at least twice.

PqsR [7] = target: T1, PqsR; assay: cell-based; parameters: assayed for their agonist and antagonist activities in a whole P. aeruginosa bacterial cell assay; endogenous in cells; host or cells: P. aeruginosa PAO1 wild type, ΔpqsA or ΔpqsAH strains carrying a chromosomal (mini)CTX::pqsA'-lux fusion
P. aeruginosa PAO1 [8] = assay: AQ production by LC-MS/MS of culture extracts; format: cell-based, Pseudomonas aeruginosa; settings: PAO1 grown with 200 µM; semi-quantitative
Method: as §1

PqsR [9] = target: T1, PqsR; format: cell-based; parameters: assayed for their agonist and antagonist activities in a whole P. aeruginosa bacterial cell assay; endogenous in cells; host or cells: P. aeruginosa PAO1 wild type, ΔpqsA or ΔpqsAH strains carrying a chromosomal (mini)CTX::pqsA'-lux fusion; settings: 100 µM QZN; ΔpqsA mutant
P. aeruginosa [10] = format: cell-based; settings: GFP-tagged wild type, flow conditions
lecA = format: cell-based; settings: P. aeruginosa PAO1, compared with control
phzA1 promoter = format: cell-based; settings: 12.5 µM; data not shown
P. aeruginosa [11] = assay: Bacterial growth in the reporter assays; format: cell-based, Pseudomonas aeruginosa
Method: The impact of the AQs and QZNs on PqsR-dependent gene expression in P. aeruginosa was evaluated using lux-based pqsA, lecA and phzA1 promoter fusions (Table S1) in 96-well microtiter plates as described before,[23]. Bioluminescence and bacterial growth were quantified using a combined luminometer-spectrometer (Tecan GENios Pro). Where required, AQs or QZNs were added to reporter strains and EC50 or IC50 values were extracted from the sigmoidal dose–response curves obtained using Prism2 (Graphpad, San Diego, USA).

[12] = MeOH stock at a workable concentration

## Nc1cc(Cl)ccc1C(=O)O [4-CABA, 2-amino-4-chorobenzoic acid]
AQ biosynthesis
  Concentrations required to inhibit AQ production: millimolar range

## CCCCCCCc1cc(=O)c2ccc(C(F)(F)F)cc2[nH]1 [7-CF3-substituted HHQ]
PqsR [1]
  Agonist activity relative to HHQ: about 50%

## CCCCCCCc1[nH]c2ccccc2c(=O)c1O [compound 1, 2-heptyl-3-hydroxy-4(1H)-quinolone]
PqsR [2]
  EC50: 1.9 µM
PqsR [3]
  Induction compared with HHQ: 100 fold
PqsR [4]
  EC50 for PqsR-dependent activation of pqsA: low micromolar range
PqsR [5]
  EC50: 3.8 ± 1.6 µM
PqsR [5]; P. aeruginosa ΔpqsA ΔpqsH double mutant
  Induction of the pqsA promoter compared with HHQ: ~3 fold
PqsR Leu207Glu
  Response, % of pqsA promoter activity with respect to strain expressing PqsR-6His: 39%

## CCCCCCCc1cc(O)c2ccccc2n1 [compound 2, 2-heptyl-4-hydroxyquinoline]
PqsR [2]
  EC50: 0.8 ± 0.3 µM
PqsR [4]
  EC50 for PqsR-dependent activation of pqsA: low micromolar range
PqsR [5]
  EC50: 16.4 ± 2.6 µM
PqsR Leu207Glu
  Response, % of pqsA promoter activity with respect to strain expressing PqsR-6His: 5%

## CCCCCCCCCc1cc(O)c2ccccc2n1 [compound 3, 2-nonyl-4-hydroxyquinoline]
PqsR [2]
  EC50: 0.4 ± 0.1 µM
PqsR [4]
  Activation of PqsR (in words): highly active
PqsR [5]
  EC50: 2.5 ± 1.5 µM

## CCCCCCCCCc1[nH]c2ccccc2c(=O)c1O [compound 4, 2-nonyl-3-hydroxy-4(1H)-quinolone]
PqsR [2]
  EC50: 1.1 ± 0.5 µM
PqsR [4]
  Activation of PqsR (in words): highly active
PqsR [5]
  EC50: 9.1 ± 11.2 µM

## CCCCCCCCCc1nc2cc(Cl)ccc2c(=O)n1N [compound 23]
P. aeruginosa PAO1 [6]
  Pyocyanin levels: substantially reduced
PqsR [7]
  IC50: 5 ± 1.6 µM
P. aeruginosa PAO1 [8]
  Production of HHQ, NHQ, their N-oxides and PQS: reduced to very low levels
PqsR [9]
  PQS concentration that competitively overcomes QZN-mediated PqsR inhibition: above 25 µM
P. aeruginosa [10]
  Biofilm development: reduced surface area coverage
lecA
  Expression of lecA: reduced
phzA1 promoter
  Reduction of phzA1 promoter activity: ~50%

## CCCCCCCCCc1nc2ccccc2c(=O)n1CCN [compound 35]
P. aeruginosa [11]
  Growth inhibition: exhibited growth inhibition
PqsR [7]; pqsA'-lux reporter
  Antagonist activity on PqsR (in words): inactive or weak antagonists
other
  melting point: 77 to 81 °C

## CCCCCCCCCc1nc2ccc(Cl)cc2c(=O)n1CCN [compound 36]
P. aeruginosa [11]
  Growth inhibition: exhibited growth inhibition
other
  melting point: 72 to 74 °C

## CCCCCCCCCc1nc2cc(Cl)ccc2c(=O)n1CCN [compound 37]
P. aeruginosa [11]
  Growth inhibition: exhibited growth inhibition
other
  melting point: 69 to 72 °C

## CCCCCCCCCc1nc2cc(Cl)ccc2c(=O)n1CCCN [compound 38]
P. aeruginosa [11]
  Growth inhibition: exhibited growth inhibition
other
  melting point: 82 to 95 °C

## NCCn1c(CCCc2ccccc2)nc2cc(Cl)ccc2c1=O [compound 39]
P. aeruginosa [11]
  Growth inhibition: exhibited growth inhibition
PqsR [7]; Figure 6 (QZNs), P. aeruginosa wild type strain with miniCTX::pqsA'-lux fusion, read-out: Antagonist IC50±SD
  IC50: 79.2 ± 2.7 µM

## Nn1c(CCc2c[nH]c3ccccc23)nc2cc(Cl)ccc2c1=O [compound 43]
[12]
  Solubility (in words): did not dissolve in MeOH at a workable concentration

## Nn1c(Cc2ccc(-c3ccccc3)cc2)nc2cc(Cl)ccc2c1=O [compound 44]
[12]
  Solubility (in words): did not dissolve in MeOH at a workable concentration

## Nn1c(CCCC2CCCCC2)nc2ccccc2c1=O [compound 46]
[12]
  Solubility (in words): barely soluble
